According to paper PMC11879280, “Antimicrobial activity of peptoids against Metallo-β-lactamase-producing Klebsiella pneumoniae, Acinetobacter baumannii, Pseudomonas aeruginosa, and other WHO priority pathogens, including Candida auris” (Journal of Applied Microbiology, 2025):
Where two headings read alike, the source gives them in different places. Ends that are not written are not given here.

Key:
[1] = test system: horse red blood cells (RBCs); assay: Haemolysis assay; assay type: cell-based; conditions: horse RBCs in PBS, 37°C, 4 h
How it was run: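 Washed horse RBCs exposed to peptoids at 0.5–250 μg ml^−1 in PBS for 4 h at 37 °C; supernatant OD 540 nm read after centrifugation. Percent haemolysis normalized between PBS (0%) and water (100%) controls, in triplicate.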

A. baumannii 005 = conditions: A. baumannii 005
How it was run: (§1)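 Suspensions of 5 × 10^5 CFU ml^−1 were incubated with compounds for 16–20 h at 37°C and 120 rpm, the medium being MHB for peptidomimetics and cation-adjusted MHB for antibiotics. Wells were afterwards log10 diluted and plated to obtain MBC.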

S. aureus 04 = conditions: S. aureus 004
How it was run: as §1

S. aureus 117 = conditions: S. aureus 117
How it was run: as §1

A. baumannii 008 = conditions: A. baumannii 008
How it was run: as §1

En. cloacae 003 = conditions: En. cloacae 003
How it was run: as §1

En. cloacae 005 = conditions: En. cloacae 005
How it was run: as §1

E. coli 005 = conditions: E. coli 005
How it was run: as §1

E. coli 0015 = conditions: E. coli 0015
How it was run: as §1

P. aeruginosa AR-1270 = conditions: P. aeruginosa AR-1270; MHB (melimine/Mel4 with 0.2% BSA, 0.01% acetic acid); mean MIC
How it was run: as §1

A. baumannii ATCC 19 606 = conditions: A. baumannii ATCC 19 606
How it was run: as §1

S. aureus 105 = conditions: S. aureus 105
How it was run: as §1

A. baumannii 007 = conditions: A. baumannii 007
How it was run: as §1

A. baumannii 006 = conditions: A. baumannii 006
How it was run: as §1

P. aeruginosa 216 = conditions: P. aeruginosa 216; MHB (melimine/Mel4 with 0.2% BSA, 0.01% acetic acid); mean MIC
How it was run: as §1

[2] = test system: Enteroc. faecalis NCTC 13 379; conditions: Enteroc. faecalis NCTC 13 379; MHB (melimine/Mel4 with 0.2% BSA, 0.01% acetic acid); mean MIC
How it was run: as §1

E. coli 0011 = conditions: E. coli 0011
How it was run: as §1

E. coli 0010 = conditions: E. coli 0010
How it was run: as §1

K. pneumoniae JIE2709 = conditions: K. pneumoniae JIE2709; MHB (melimine/Mel4 with 0.2% BSA, 0.01% acetic acid); mean MIC
How it was run: as §1

C. auris CBS12373 = assay: Broth microdilution MIC; assay type: cell-based, Candida auris; conditions: CBS 12 373
[3] = OD 540 nm, triplicate, best fit curve
[4] = MHB (melimine/Mel4 with 0.2% BSA, 0.01% acetic acid), mean MIC

TLISWIKNKRKQRPRVSRRRRRRGGRRRR [Melimine]
HD10 (10% haemolytic dose) [1, 3]: > 256 µg/mL
HD50 (50% haemolytic dose) [1, 3]: > 256 µg/mL
HD10 (10% haemolytic dose) ([1]; value in brackets): > 67.6 µmol/L
HD50 (50% haemolytic dose) ([1]; value in brackets): > 67.7 µmol/L
MIC of peptidomimetics (A. baumannii 005; [4]): 125 µg/mL
MIC of peptidomimetics (A. baumannii 005; value in brackets): 33.0 µmol/L
MIC of peptidomimetics (S. aureus 04; [4]): 31.3 µg/mL
MIC of peptidomimetics (S. aureus 04; value in brackets): 8.2 µmol/L
MIC of peptidomimetics (S. aureus 117; [4]): 31.3 µg/mL
MIC of peptidomimetics (S. aureus 117; value in brackets): 8.2 µmol/L
MIC of peptidomimetics (A. baumannii 008; [4]): 250 µg/mL
MIC of peptidomimetics (A. baumannii 008; value in brackets): 66.0 µmol/L
MIC of peptidomimetics (En. cloacae 003; [4]): 125 µg/mL
MIC of peptidomimetics (En. cloacae 003; value in brackets): 33.0 µmol/L
MIC of peptidomimetics (En. cloacae 005; [4]): 250 µg/mL
MIC of peptidomimetics (En. cloacae 005; value in brackets): 66.0 µmol/L
MIC of peptidomimetics (E. coli 005; [4]): 250 µg/mL
MIC of peptidomimetics (E. coli 005; value in brackets): 66.0 µmol/L
MIC of peptidomimetics (E. coli 0015; [4]): 125 µg/mL
MIC of peptidomimetics (E. coli 0015; value in brackets): 33.0 µmol/L
MIC of peptidomimetics (P. aeruginosa AR-1270): 500 µg/mL
MIC of peptidomimetics (A. baumannii ATCC 19 606; [4]): 62.5 µg/mL
MIC of peptidomimetics (A. baumannii ATCC 19 606; value in brackets): 16.5 µmol/L
MIC of peptidomimetics (S. aureus 105; [4]): 31.3 µg/mL
MIC of peptidomimetics (S. aureus 105; value in brackets): 8.2 µmol/L
MIC of peptidomimetics (A. baumannii 007; [4]): 125 µg/mL
MIC of peptidomimetics (A. baumannii 007; value in brackets): 33.0 µmol/L
MIC of peptidomimetics (A. baumannii 006; [4]): 62.5 µg/mL
MIC of peptidomimetics (A. baumannii 006; value in brackets): 16.5 µmol/L
MIC of peptidomimetics (P. aeruginosa 216): 500 µg/mL
MIC of peptidomimetics [2]: 500 µg/mL
MIC of peptidomimetics (E. coli 0011; [4]): 125 µg/mL
MIC of peptidomimetics (E. coli 0011; value in brackets): 33.0 µmol/L
MIC of peptidomimetics (E. coli 0010; [4]): 250 µg/mL
MIC of peptidomimetics (E. coli 0010; value in brackets): 66.0 µmol/L
MIC of peptidomimetics (K. pneumoniae JIE2709): 500 µg/mL
MIC against C. auris (C. auris CBS12373; RPMI 1640 with MOPS, 5 × 10^3 CFU ml^−1, ≥90% reduction (≥50% for fluconazole)): 3.9 µg/mL
MIC against C. auris (C. auris CBS12373; value in brackets): 1.03 µmol/L
